Here are results for 6 compounds from ChEMBL document CHEMBL5291721, “A preclinical secondary pharmacology resource illuminates target-adverse drug reaction associations of marketed drugs” (Nat Commun, 2023).

A value given as a limit tells only on which side of the number the result lay.

For assay [1], the target named is T1, Type-1 angiotensin II receptor (Homo sapiens, UniProt P30556).
T1 sequence (P30556 whole entry): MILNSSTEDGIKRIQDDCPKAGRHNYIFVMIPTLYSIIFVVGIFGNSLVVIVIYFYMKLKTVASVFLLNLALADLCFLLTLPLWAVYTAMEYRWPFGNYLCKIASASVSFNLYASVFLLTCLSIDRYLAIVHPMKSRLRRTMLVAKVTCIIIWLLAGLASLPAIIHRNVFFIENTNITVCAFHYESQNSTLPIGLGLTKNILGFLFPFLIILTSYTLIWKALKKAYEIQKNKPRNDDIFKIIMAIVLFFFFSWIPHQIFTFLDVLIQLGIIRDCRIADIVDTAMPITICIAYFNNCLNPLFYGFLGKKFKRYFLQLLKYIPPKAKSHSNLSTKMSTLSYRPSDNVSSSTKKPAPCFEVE

Assay [2] deals with T2, 5-hydroxytryptamine receptor 1A (Homo sapiens, UniProt P08908).
T2 sequence (P08908 whole entry): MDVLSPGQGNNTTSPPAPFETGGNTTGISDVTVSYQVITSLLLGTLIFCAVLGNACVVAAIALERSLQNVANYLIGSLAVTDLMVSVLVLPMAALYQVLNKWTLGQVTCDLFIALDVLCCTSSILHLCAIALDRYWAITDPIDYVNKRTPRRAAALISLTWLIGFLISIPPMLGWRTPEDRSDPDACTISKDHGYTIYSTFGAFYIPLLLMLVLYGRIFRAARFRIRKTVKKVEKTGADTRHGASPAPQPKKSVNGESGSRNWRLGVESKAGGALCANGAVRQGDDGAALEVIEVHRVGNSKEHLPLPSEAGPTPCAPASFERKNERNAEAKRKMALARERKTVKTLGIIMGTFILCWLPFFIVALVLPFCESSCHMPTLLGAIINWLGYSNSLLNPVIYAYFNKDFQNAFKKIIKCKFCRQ

The target in assay [3] is T3, Prostaglandin G/H synthase 1 (Rattus norvegicus, UniProt Q63921).
T3 sequence (Q63921 whole entry): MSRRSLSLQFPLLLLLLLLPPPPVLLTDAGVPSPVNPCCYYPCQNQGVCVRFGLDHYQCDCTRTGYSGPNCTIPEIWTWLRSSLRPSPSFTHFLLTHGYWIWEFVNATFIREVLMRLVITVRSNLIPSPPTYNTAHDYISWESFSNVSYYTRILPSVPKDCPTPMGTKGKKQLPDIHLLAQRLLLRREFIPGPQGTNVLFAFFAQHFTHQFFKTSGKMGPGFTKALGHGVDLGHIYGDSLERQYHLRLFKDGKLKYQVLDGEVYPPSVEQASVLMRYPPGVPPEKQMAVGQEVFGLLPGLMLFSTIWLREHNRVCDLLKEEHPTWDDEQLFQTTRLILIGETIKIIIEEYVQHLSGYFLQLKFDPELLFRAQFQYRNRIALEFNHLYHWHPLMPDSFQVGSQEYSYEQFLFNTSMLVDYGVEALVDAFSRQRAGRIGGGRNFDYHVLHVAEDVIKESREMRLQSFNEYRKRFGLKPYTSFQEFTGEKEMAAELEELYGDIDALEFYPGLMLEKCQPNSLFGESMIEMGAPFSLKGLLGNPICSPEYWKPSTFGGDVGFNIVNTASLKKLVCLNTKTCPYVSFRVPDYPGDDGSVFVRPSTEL
The class given is functional.

The target of assay [4] is Beta-1 adrenergic receptor (Homo sapiens, UniProt P08588). The class given is functional, cell-based.
Chain of Beta-1 adrenergic receptor (P08588 whole entry): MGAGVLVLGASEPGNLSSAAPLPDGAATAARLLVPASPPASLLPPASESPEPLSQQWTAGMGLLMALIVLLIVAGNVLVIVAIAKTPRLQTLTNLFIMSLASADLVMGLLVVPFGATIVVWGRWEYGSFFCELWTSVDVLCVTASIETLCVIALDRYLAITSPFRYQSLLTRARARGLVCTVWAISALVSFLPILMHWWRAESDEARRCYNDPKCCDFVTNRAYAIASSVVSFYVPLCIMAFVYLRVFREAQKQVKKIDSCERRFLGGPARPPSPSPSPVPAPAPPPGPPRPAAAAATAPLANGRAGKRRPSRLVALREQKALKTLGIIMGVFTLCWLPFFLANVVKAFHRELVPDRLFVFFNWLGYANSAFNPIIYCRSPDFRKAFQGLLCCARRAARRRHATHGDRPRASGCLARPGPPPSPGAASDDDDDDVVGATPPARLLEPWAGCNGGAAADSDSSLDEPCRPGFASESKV
The target of assay [5] is Retinoic acid receptor beta (Homo sapiens, UniProt P10826). The class given is functional, cell-based.
Chain of Retinoic acid receptor beta (P10826 whole entry): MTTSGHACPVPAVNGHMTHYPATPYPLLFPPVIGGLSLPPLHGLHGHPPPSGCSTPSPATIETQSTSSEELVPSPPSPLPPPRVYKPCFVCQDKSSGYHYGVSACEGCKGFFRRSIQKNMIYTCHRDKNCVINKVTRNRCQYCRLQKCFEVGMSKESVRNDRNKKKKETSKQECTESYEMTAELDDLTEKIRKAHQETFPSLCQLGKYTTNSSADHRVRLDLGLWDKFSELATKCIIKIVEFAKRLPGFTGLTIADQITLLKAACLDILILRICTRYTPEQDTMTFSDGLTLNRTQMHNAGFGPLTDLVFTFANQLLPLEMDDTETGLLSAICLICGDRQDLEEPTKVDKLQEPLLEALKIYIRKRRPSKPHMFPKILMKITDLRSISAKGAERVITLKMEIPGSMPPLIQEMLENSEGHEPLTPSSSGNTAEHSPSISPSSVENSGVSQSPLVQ
The target in assay [6] is Oxysterols receptor LXR-alpha (Homo sapiens, UniProt Q13133). The class given is functional.
Chain of Oxysterols receptor LXR-alpha (Q13133 whole entry): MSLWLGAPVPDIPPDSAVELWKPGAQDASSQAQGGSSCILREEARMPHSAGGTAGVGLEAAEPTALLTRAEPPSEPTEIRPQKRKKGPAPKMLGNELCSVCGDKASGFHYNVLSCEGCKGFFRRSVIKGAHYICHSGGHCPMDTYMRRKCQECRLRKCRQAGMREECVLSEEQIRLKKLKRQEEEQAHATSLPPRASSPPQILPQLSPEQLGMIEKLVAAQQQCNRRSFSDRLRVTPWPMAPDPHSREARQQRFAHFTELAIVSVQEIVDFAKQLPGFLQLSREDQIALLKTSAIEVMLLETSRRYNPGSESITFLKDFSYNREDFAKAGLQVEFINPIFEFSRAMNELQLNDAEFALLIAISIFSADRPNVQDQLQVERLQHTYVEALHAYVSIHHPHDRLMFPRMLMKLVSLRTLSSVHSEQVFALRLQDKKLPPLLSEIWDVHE
Assay [7] addresses Retinoic acid receptor alpha (Homo sapiens, UniProt P10276). The class given is functional, cell-based.
The target of assay [8] is Oxysterols receptor LXR-beta (Homo sapiens, UniProt P55055). The class given is functional.
Chain of Oxysterols receptor LXR-beta (P55055 whole entry): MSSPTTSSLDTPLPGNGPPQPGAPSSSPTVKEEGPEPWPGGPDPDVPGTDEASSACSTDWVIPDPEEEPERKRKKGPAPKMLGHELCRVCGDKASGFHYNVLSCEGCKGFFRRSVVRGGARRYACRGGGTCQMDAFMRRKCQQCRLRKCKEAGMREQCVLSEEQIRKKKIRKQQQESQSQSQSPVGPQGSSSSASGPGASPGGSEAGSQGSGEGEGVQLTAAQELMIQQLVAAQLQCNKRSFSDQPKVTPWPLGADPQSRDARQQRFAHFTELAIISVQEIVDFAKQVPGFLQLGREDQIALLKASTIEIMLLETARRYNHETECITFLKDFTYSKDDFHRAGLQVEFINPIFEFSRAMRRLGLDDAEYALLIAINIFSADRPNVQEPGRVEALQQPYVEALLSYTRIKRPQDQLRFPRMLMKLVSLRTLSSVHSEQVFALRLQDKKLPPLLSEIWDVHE
Assay [9] has as its target T1, Type-1 angiotensin II receptor. This is another data set of the same source.
Assay [10] has as its target T4, Muscarinic acetylcholine receptor M1 (Homo sapiens, UniProt P11229).
T4 sequence (P11229 whole entry): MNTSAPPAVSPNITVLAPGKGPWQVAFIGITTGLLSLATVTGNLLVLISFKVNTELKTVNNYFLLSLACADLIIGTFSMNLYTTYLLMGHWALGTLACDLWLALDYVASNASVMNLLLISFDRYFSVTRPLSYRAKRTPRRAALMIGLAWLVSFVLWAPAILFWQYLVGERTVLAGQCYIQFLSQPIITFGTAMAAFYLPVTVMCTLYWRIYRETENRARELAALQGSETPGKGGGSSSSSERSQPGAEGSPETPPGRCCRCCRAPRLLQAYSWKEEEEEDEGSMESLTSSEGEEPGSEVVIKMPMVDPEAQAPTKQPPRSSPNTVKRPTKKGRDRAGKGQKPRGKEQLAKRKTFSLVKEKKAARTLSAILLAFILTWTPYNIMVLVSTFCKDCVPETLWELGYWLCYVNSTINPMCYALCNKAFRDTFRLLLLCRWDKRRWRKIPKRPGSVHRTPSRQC
The class given is functional, cell-based.

Assay [11] addresses T5, Muscarinic acetylcholine receptor M2 (Homo sapiens, UniProt P08172).
T5 sequence (P08172 whole entry): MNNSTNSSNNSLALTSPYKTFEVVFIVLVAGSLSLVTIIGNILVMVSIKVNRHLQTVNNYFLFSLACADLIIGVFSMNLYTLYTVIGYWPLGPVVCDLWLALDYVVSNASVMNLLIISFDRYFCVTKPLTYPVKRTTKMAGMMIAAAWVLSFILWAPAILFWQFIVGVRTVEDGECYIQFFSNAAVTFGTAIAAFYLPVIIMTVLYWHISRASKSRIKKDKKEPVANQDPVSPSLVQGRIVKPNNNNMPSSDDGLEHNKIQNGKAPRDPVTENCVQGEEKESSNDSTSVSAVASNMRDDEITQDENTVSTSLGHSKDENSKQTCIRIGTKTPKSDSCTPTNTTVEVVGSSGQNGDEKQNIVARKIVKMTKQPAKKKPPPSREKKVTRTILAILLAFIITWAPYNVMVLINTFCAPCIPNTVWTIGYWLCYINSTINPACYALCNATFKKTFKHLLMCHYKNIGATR
Note: assay procedure not described here.

Chain of Retinoic acid receptor alpha (P10276 whole entry): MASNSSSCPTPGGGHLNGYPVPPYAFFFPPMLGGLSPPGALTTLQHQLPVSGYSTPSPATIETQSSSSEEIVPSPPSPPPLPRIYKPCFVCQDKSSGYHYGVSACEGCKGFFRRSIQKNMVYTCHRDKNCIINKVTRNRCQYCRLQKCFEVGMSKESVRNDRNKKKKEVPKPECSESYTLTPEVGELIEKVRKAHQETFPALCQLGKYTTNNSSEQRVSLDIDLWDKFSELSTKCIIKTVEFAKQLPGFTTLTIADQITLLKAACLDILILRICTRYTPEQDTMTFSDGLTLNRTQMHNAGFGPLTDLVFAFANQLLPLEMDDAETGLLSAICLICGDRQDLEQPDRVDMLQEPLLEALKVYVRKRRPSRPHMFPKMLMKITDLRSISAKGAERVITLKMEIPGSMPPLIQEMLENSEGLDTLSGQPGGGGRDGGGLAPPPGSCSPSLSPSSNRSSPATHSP

As a reminder, the AC50 is the concentration giving half of the maximal activity seen. Higher therefore signals weaker potency. Take `CCOc1nc2cccc(C(=O)O)c2n1Cc1ccc(-c2ccccc2-c2nnn[nH]2)cc1`: the AC50 in assay [1] amounted to 0.0004 µM.
`CC[C@@H](CO)NC(=O)[C@@H]1C=C2c3cccc4c3c(cn4C)C[C@H]2N(C)C1` [METHYSERGIDE] came in with an AC50 in assay [2] of 0.17 µM.
In [3], `CN(CCOc1ccc(CC2SC(=O)NC2=O)cc1)c1ccccn1` (stereo unspecified) [ROSIGLITAZONE] displayed an AC50 of more than 30 µM.
In the case of `CC(C)C[C@H](NC(=O)[C@@H](O)[C@H](N)Cc1ccccc1)C(=O)O` [UBENIMEX], in assay [4], the AC50 is more than 30 µM.
For `COc1cc(C(=O)NS(=O)(=O)c2ccccc2C)ccc1Cc1cn(C)c2ccc(NC(=O)OC3CCCC3)cc12` [ZAFIRLUKAST], the AC50 in [5] was 13 µM; in [6], more than 30 µM; in assay [7] it was more than 30 µM; in [8], more than 30 µM; in [9], 50 µM.
In the case of `O=C1Cc2cc(CCN3CCN(c4nsc5ccccc45)CC3)c(Cl)cc2N1` [ZIPRASIDONE], the AC50 in [10] was more than 30 µM; in assay [11], 6.3 µM.
